{
  "source": "patent US20110230659A1",
  "about": "“CYCLOBUTYL PURINE DERIVATIVE, ANGIOGENESIS PROMOTING AGENT, LUMEN FORMATION PROMOTING AGENT, NEUROCYTE GROWTH PROMOTING AGENT, AND DRUG” (NATIONAL UNIVERSITY CORPORATION KAGAWA UNIVERSITY, priority 2008, published 2011)",
  "key": {"[1]": {"test_system": "human umbilical vein endothelial cells (HUVEC) and normal human dermal fibroblasts", "test": "Measurement of lumen formation (angiogenesis kit, CD31 immunostaining, lumen area)", "type": "cell-based", "protocol": "The measurement of lumen formation was carried out in the following manner using commercially available angiogenesis kits (Kurabo), each including human umbilical vein endothelial cells (HUVEC) and normal human dermal fibroblasts. First, sample solutions were prepared by dissolving 2-Cl—C.OXT-A in physiological saline so as to achieve predetermined concentrations (1, 10, 100, 500 μmol/l, 1, 5, 10, 50 mmol/l). Then, the sample solutions containing 2-Cl—C.OXT-A at the predetermined concentrations respectively were added to media provided in the kits so that their concentrations became 10 v/v %. Thus, lumen formation media were prepared. The final concentrations of 2-Cl—C.OXT-A in the lumen formation media were 0.1, 1, 10, 50, 100, 500 μmol/l, 1 and 5 mmol/1.\nUsing each of the lumen formation media, the human umbilical vein endothelial cells (HUVEC) and the normal human dermal fibroblasts were cultured for 10 days. After the culture, the human umbilical vein endothelial cells (HUVEC) were immunostained using a lumen staining kit (for CD31 staining, Kurabo). Then, using NIH Image (image processing and analysis software), the area of a portion stained by the immunostaining (lumen area) was measured. As a control, a medium provided in the kit was used instead of the lumen formation medium to carry out the culture, and the cells were immunostained and the lumen area was measured in the same manner as in the above. Then, using the following equation (II), the relative value of lumen area in the culture using each of the lumen formation media containing 2-Cl—C.OXT-A at the predetermined concentrations was calculated.\nIn the present example, the relative value of lumen area was calculated in the same manner as in the lumen formation measurement in Example 1, except that the measurement was carried out with respect to four groups respectively using media Nos. 5 to 8 prepared by adding 2-Cl—C.OXT-A and PD98059 to media provided in the above-described angiogenesis kits (Kurabo) so that their concentrations became as shown in Table 2 below. In the group using the medium No. 7, the culture was conducted using the medium No. 7 from the first to third days of the culture and the medium No. 5 from the fourth to tenth days of the culture, and in the group using the medium No. 8, the culture was conducted using the medium No. 8 from the first to third days of the culture and the medium No. 6 from the fourth to tenth days of the culture.\nIn the present example, the relative value of lumen area was calculated in the same manner as in the lumen formation measurement in Example 1, except that the measurement was carried out with respect to six groups respectively using media Nos. 15 to 20 prepared by adding 2-Cl—C.OXT-A, VEGF (positive control), and SU5416 to media provided in the above-described angiogenesis kit (Kurabo) so that their concentrations became as shown in Table 4 below. In the group using the medium No. 16, the culture was conducted using the medium No. 16 from the first to third days of the culture and the medium No. 15 from the fourth to tenth days of the culture; in the group using the medium No. 18, the culture was conducted using the medium No. 18 from the first to third days of the culture and the medium No. 17 from the fourth to tenth days of the culture; and in the group using the medium No. 20, the culture was conducted using the medium No. 20 from the first to third days of the culture and the medium No. 19 from the fourth to tenth days of the culture."}, "ERK [2]": {"test_system": "ERK", "test": "ERK activation (phosphorylation) immunoblot in HUVEC", "type": "cell-based, human"}, "ERK [3]": {"test_system": "ERK", "test": "ERK activation (phosphorylation) immunoblot in HUVEC", "type": "cell-based, human", "protocol": "First, to a HuMedia-EB2 medium (Kurabo) to which 2 v/v % inactivated fetal bovine serum (FBS) had been added, 2-Cl—C.OXT-A was added so that its concentration became 100 μmol/l. Thus, a medium was prepared. Using the medium, human umbilical vein endothelial cells (HUVEC) were cultured for predetermined periods (0, 10, 20, 30, 45, and 60 minutes).\nAfter the culture, cells were collected. The collected cells were lysed by adding a cell lysis buffer (SDS-lysis buffer) thereto, and heat-denatured at 95° C. for 5 minutes. The solubilized protein in an amount corresponding to 5 v/v % of the heat-denatured cell lysate was subjected to electrophoresis using 10% SDS-polyacrylamide gel, whereby the solubilized protein was transferred onto a nitrocellulose membrane (Amersham Biosciences). To 20 ml of TBS-T having the following composition, skim milk (Wako) was added so that its concentration became 5%, thus preparing a blocking solution. The resultant nitrocellulose membrane was immersed in the blocking solution and shaken at room temperature for 1 hour.\nPrimary antibodies shown below were diluted 1000-fold by adding them to 5% bovine serum albumin (Sigma)-containing TBS-T, thus preparing a primary antibody solution. The nitrocellulose membrane after being subjected to the blocking was immersed in the primary antibody solution, and shaken at room temperature for 1 hour. The resultant nitrocellulose membrane was immersed in the TBS-T and washed by being shaken for 10 minutes. This washing operation was carried out three times in total.\nSecondary antibodies shown below were diluted 20000-fold by adding them to TBS-T, thus preparing a secondary antibody solution. The nitrocellulose membrane having undergone the reaction with the primary antibodies was immersed in the secondary antibody solution, and shaken at room temperature for 1 hour. The resultant nitrocellulose membrane was immersed in the TBS-T and washed by being shaken for 10 minutes. This washing operation was carried out three times in total.\nThe enzymes were visualized with SuperSignal (registered trademark) West Pico Chemiluminescent Substrate (Pierce), and detected by being exposed to RX—U X-ray film (FUJIFILM Corporation). From the detected bands, the respective phosphoenzymes and total enzymes were quantified using an NIH image software. Furthermore, the relative value (−fold) of each phosphoenzyme was calculated by substituting the measured value of the phosphoenzyme into the following equation (III).\nRelative value(−fold)of phosphoenzyme=(B/D)/(A/C) (III)\nIn the present example, the effect of 2-Cl—C.OXT-A of Example 1 and C.OXT-G of Comparative Example 2 on the activation (phosphorylation) of ERK was examined. In the present example, the amount of each enzyme was measured and the relative value (−fold) of each phosphoenzyme was calculated in the same manner as in Example 3, except that: a medium to which 2-Cl—C.OXT-A had been added so as to achieve predetermined concentrations (0, 10 and 100 μmol/l) and a medium to which 100 μmol/l C.OXT-G had been added were used; the culture period after the addition was set to 20 minutes: as the primary antibodies, only an anti-phospho ERK polyclonal antibody (Catalog No. 9101, Cell Signaling Technology) and an anti-total ERK monoclonal antibody (Catalog No. 610408, BD Transduction Laboratory) were used; as the secondary antibody for ERK, a sheep HRP-labeled anti-mouse IgG antibody (Pierce) was used; and as a secondary antibody of pERK, a sheep HRP-labeled anti-rabbit IgG antibody (Pierce) was used.\nIn the present example, the effect of PD98059 as an MEK inhibitor on the ERK activation (phosphorylation) by 2-Cl—C.OXT-A used in Example 1 was examined. […]", "remark": "listed apart in the source"}, "[4]": {"test_system": "rat adrenal medulla-derived cell line PC12", "test": "Differentiation of PC12 cells, morphological change (micrographs)", "type": "cell-based", "conditions": "medium containing NGF (positive control); sixth day of culture", "protocol": "In the present example, using rat adrenal medulla-derived cell line PC12, which is neurocyte model cells, obtained from the RIKEN BioResource Center, the effect of 2-Cl—C.OXT-A of Example 1 on the differentiation of PC12 cells was examined.\n(§1) Three samples were prepared by adding additives shown in Table 5 below to PBS so as to achieve predetermined concentrations. Also, an evaluation medium was prepared by adding each sample or PBS to DMEM (no serum) so that its concentration became 10 v/v %. Furthermore, as a control medium, a medium containing only DMEM (no serum) was prepared. […] On the sixth day of the culture, the cells were photographed under a microscope, and the AChE activity was measured according to the Ellman's method (Ellman, G. L., et al., Biochem. Pharmacol., 7, pp. 88-95, (1961)). Specifically, the AChE activity was measured in the following manner. […] The sample solution, 75 μl of 10 mmol/l DTNB, and 3.0 ml of 0.1 mol/l phosphate buffer solution (pH 8.0) were added to a […] for absorbance measurement, and finally, 50 μl of 100 mmol/l acetylthiocholine was added to cause a reaction. The absorbance of the reaction solution at 412 nm was measured for 5 minutes from immediately after the addition of the ace tylthiocholine. From the thus-measured absorbances, the amount of increase in absorbance (C) per minute was determined. […]"}, "[5]": {"test_system": "rat adrenal medulla-derived cell line PC12", "test": "Differentiation of PC12 cells, AChE activity (Ellman's method)", "type": "cell-based", "conditions": "NGF (positive control), sixth day of culture", "protocol": "as §1, with “prepared. The PC12 cells were suspended at a density of 5×10^4 cells/ml in DMEM to which 5 v/v % cow serum and 10 v/v % horse serum had been added. Thus, a cell suspension was prepared. 3 ml of the cell suspension was inoculated into a 6 petri dish.” for “prepared.”"}},
  "data": [
    {"compound": "VEGF", "values": [
      {"measurement": "lumen area", "setting": "[1]; Example 9, medium No. 19: VEGF 10 ng/ml", "result": "increased"},
      {"measurement": "pERK", "setting": "ERK [2]; Example 8, medium No. 13: VEGF 10 ng/ml", "result": "increased"}
    ]},
    {"compound": "Cc1cc(C)c(/C=C2\\C(=O)Nc3ccccc32)[nH]1", "note": "[SU5416, reference compound]", "values": [
      {"measurement": "lumen formation", "setting": "[1]; Example 9, medium No. 16: only SU5416 2.5 μmol/l, versus medium No. 15 (control)", "result": "decreased"},
      {"measurement": "lumen formation promotion by 2-Cl—C.OXT-A in the presence of SU5416", "setting": "[1]; Example 9, medium No. 18: 2-Cl—C.OXT-A 10 μmol/l + SU5416 2.5 μmol/l, lumen area increased, rate lower than medium No. 17", "result": "not inhibited"},
      {"measurement": "lumen area", "setting": "[1]; Example 9, medium No. 20: VEGF 10 ng/ml + SU5416 2.5 μmol/l", "result": "decreased"},
      {"measurement": "increase in pERK", "setting": "ERK [2]; Example 8, medium No. 10: only SU5416 100 nmol/l", "result": "not observed"},
      {"measurement": "ERK activation by 2-Cl—C.OXT-A in the presence of SU5416", "setting": "ERK [2]; Example 8, medium No. 12: 2-Cl—C.OXT-A 100 μmol/l + SU5416 100 nmol/l", "result": "not inhibited"},
      {"measurement": "increase in pERK by VEGF in the presence of SU5416", "setting": "ERK [2]; Example 8, medium No. 14: VEGF 10 ng/ml + SU5416 100 nmol/l", "result": "suppressed"}
    ]},
    {"compound": "COc1cccc(-c2cc(=O)c3ccccc3o2)c1N", "note": "[PD98059, reference compound]", "values": [
      {"measurement": "relative value of lumen area compared with control", "setting": "[1]; Example 7, medium No. 8: 2-Cl—C.OXT-A 10 μmol/l + PD98059 10 nmol/l (first to third days)", "result": "about 1 fold"},
      {"measurement": "increase in pERK", "setting": "ERK [3]; Example 6, medium No. 3: only PD98059 100 nmol/l", "result": "not observed"},
      {"measurement": "ERK activation by 2-Cl—C.OXT-A in the presence of PD98059", "setting": "ERK [3]; Example 6, medium No. 4: 2-Cl—C.OXT-A 100 μmol/l + PD98059 100 nmol/l", "result": "inhibited"}
    ]},
    {"compound": "NGF: nerve growth factor, positive control", "values": [
      {"measurement": "morphological change of PC12 cells (axon extension)", "setting": "[4]", "result": "cells from which linear axons extend were observed"},
      {"measurement": "AChE enzyme activity (relative value)", "setting": "[5]", "result": "increased"}
    ]},
    {"compound": "Nc1nc2c(ncn2C2CC(CO)C2CO)c(=O)[nH]1", "note": "(stereo not drawn) [C.OXT-G, 2-amino-9-[trans-trans-2,3-bis(hydroxymethyl)cyclobutyl]-3H-purine-6-one, reference compound]", "values": [
      {"measurement": "amount of pERK", "setting": "ERK [3]; Example 4, 100 μmol/l C.OXT-G, 20 minutes", "result": "not increased"}
    ]}
  ]
}
